From US6582351B1, “Imidazopyridinone derivatives and their use as phosphodiesterase inhibitors” (Fujisawa Pharmaceutical Co., Ltd., priority 1999, dated 2003) come the findings set out here.

Data set [1] deals with T1, human platelet PDE-V (Homo sapiens, UniProt O76074).
T1 construct: Human platelet cGMP-PDE was separated from other isozymes in human platelets; from tissue; host or cells: human platelets
Briefly: cGMP-Phosphodiesterase (PDE) assay; enzymatic inhibitory test against human platelet PDE-V. It is filed as biochemical. The settings on record: 0.1 μM [3H]-cGMP substrate, 30° C., 10 minutes. On the procedure:
[II] Test Method: cGMP-Phosphodiesterase (PDE) Assay
Human platelet cGMP-PDE was separated from other isozymes in human platelets by a modification of the method of Thompson et. al. (see Cyclic Nucleotide Phosphodiesterase (PDE), in Methods of Enzymatic analysis, Vol 4, p127-234, 1984). Specific inhibitory activity of PDE-V was measured by following procedure. In enzyme inhibition assays, the test compounds were dissolved in DMSO and then diluted with assay buffer (50 mM Tris-HCl, 0.077 mg/ml dithiothreitol and 10 mg/ml snake venom, 1 mM EGTA, pH 8.0), at final concentrations ranging from 10^−10 to 10^−6 M. Assays were performed at 0.1 μM substrate ([^3H]-cGMP) concentration, at 30° C. for 10 minutes using enzyme dilutions which gave 10-20% hydrolysis of substrate. Each assay was initiated by addition of substrate and terminated by addition of anion exchange resin (Dowex® 1-X8, […]) followed by centrifugation for 10 minutes (3000 rpm, at 4° C.). Radioactivity of supernatant ([^3H]-GMP) was assayed by liquid scintillation counting.

`COc1ccc(Cn2c(=O)n(-c3ccc4[nH]cnc4c3)c3ccc(C(F)(F)F)cc32)cc1Cl` [Example 2(21), 1-(1H-Benzimidazol-5-yl)-3-(3-chloro-4-methoxybenzyl)-5-trifluoromethyl-2,3-dihydro-1H-benzimidazol-2-one] displayed a melting point of 158 to 160 °C. Further, the IC50 in data set [1] is < 10 nM. Turning to `COc1ccc(Cn2c(=O)n([C@H]3CCN(C(=O)OC(C)(C)C)C3)c3ccc(C#N)cc32)cc1Cl` [Example 2(60), 1-[(S)-1-tert-Butoxycarbonylpyrrolidin-3-yl]-3-(3-chloro-4-methoxybenzyl)-5-cyano-2,3-dihydro-1H-benzimidazol-2-one], the IC50 in data set [1] was < 10 nM. The molecule `COc1ccc(Cn2c(=O)n([C@H]3CC[C@H](O)CC3)c3ccc(C#N)cc32)cc1C#N` [Example 2(81), 5-Cyano-3-(3-cyano-4-methoxybenzyl)-1-(trans-4-hydroxycyclohexyl)-2,3-dihydro-1H-benzimidazol-2-one] yielded a melting point of 191 to 193 °C. For the same molecule, in data set [1], the concentration for half-maximal inhibition (IC50) was < 10 nM. For the molecule `COc1ccc(Cn2c(=O)n(C3CCC4OC(C)(C)OC4C3)c3ccc(C#N)cc32)cc1Cl` (centres unmarked) [Example 2(95), 3-(3-Chloro-4-methoxybenzyl)-5-cyano-1-(t-3,t-4-isopropylidenedioxy-r-1-cyclohexyl)-2,3-dihydro-1H-benzimidazol-2-one], in data set [1], the half-maximal inhibitory concentration (IC50) is < 10 nM. As for `COc1ccc(Cn2c(=O)n([C@H]3CC[C@H](O)CC3)c3ccc([N+](=O)[O-])cc32)cc1[N+](=O)[O-]` [Example 2(109), 1-(trans-4-Hydroxycyclohexyl)-3-(4-methoxy-3-nitrobenzyl)-5-nitro-1,3-dihydro-2H-benzimidazol-2-one], the IC50 in data set [1] was < 10 nM. For the molecule `COc1ccc(Cn2c(=O)n([C@H](C)CO)c3ncc(C(F)(F)F)cc32)cc1Cl` [Example 4(2), 1-(3-Chloro-4-methoxybenzyl)-3-((R)-2-hydroxy-1-methylethyl)-6-trifluoromethyl-2,3-dihydro-1H-imidazo[4,5-b]pyridin-2-one], the melting point was in the range of 154.5 to 155 °C. Further, the IC50 in data set [1] is < 10 nM.

`COc1ccc(Cn2c(=O)n([C@H]3CC[C@H](O)CC3)c3ncc(C(=O)NCc4cccnc4)cc32)cc1Cl` [Example 21(2), 1-(3-Chloro-4-methoxybenzyl)-6-(3-picolylcarbamoyl)-3-(trans-4-hydroxycyclohexyl)-2,3-dihydro-1H-imidazo[4,5-b]pyridin-2-one] showed a melting point of 134 to 135 °C. For the molecule `COc1ccc(Cn2c(=O)n([C@H]3CC[C@H](OC(C)=O)CC3)c3ccc([N+](=O)[O-])cc32)cc1OC` [Example 22(1), 1-(trans-4-Acetoxycyclohexyl)-3-(3,4-dimethoxybenzyl)-5-nitro-2,3-dihydro-1H-benzimidazol-2-one], the melting point is 207 to 207.5 °C.

Consider `COc1ccc(Cn2c(=O)n([C@H]3CC[C@@H](O)CC3)c3ncc(C#N)cc32)cc1Cl` [Example 24, 1-(3-chloro-4-methoxybenzyl)-6-cyano-3-(cis-4-hydroxycyclohexyl)-2,3-dihydro-1H-imidazo[4,5-b]pyridin-2-one], for which the melting point was in the range of 197 to 198 °C. Regarding `COc1ccc(Cn2c(=O)n(C3CCN(C)CC3)c3ccc(C#N)cc32)cc1Cl` [Example 28, 3-(3-chloro-4-methoxybenzyl)-5-cyano-1-(1-methylpiperidin-4-yl)-2,3-dihydro-1H-benzimidazole-2-one], the IC50 in data set [1] is < 10 nM.

With `COc1ccc(Cn2c(=O)n([C@H]3CC[C@H](O)CC3)c3ncc(C#N)cc32)cc1Cl` [Example 33, 1-(3-chloro-4-methoxybenzyl)-6-cyano-3-(trans-4-hydroxycyclohexyl)-2,3-dihydro-1H-imidazo[4,5-b]pyridin-2-one], the IC50 in data set [1] was < 10 nM.

One may read the melting point as the temperature of the solid-liquid transition. For orientation: IC50 means the concentration that gives 50% inhibition.
